According to ChEMBL document CHEMBL4371002 (J Med Chem, 2018):

How the values were obtained:
[1] = in vitro; conditions: plasma
[2] = tested on: T47D; assay: cells; type: functional, cell-based; conditions: Homo sapiens
[3] = target: T1, 3-oxo-5-alpha-steroid 4-dehydrogenase 2 (Homo sapiens, UniProt P31213); type: cell-based, HEK293
T1 sequence (P31213 whole entry): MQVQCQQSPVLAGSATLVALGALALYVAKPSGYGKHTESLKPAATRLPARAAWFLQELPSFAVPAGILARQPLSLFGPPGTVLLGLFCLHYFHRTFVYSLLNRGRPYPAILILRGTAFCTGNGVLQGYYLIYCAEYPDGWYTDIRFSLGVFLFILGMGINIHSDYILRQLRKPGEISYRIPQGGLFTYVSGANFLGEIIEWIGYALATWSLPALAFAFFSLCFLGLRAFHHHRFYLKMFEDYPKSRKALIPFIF

[4] = target: T2, 3-oxo-5-alpha-steroid 4-dehydrogenase 1 (Homo sapiens, UniProt P18405); type: cell-based, HEK293
T2 sequence (P18405 whole entry): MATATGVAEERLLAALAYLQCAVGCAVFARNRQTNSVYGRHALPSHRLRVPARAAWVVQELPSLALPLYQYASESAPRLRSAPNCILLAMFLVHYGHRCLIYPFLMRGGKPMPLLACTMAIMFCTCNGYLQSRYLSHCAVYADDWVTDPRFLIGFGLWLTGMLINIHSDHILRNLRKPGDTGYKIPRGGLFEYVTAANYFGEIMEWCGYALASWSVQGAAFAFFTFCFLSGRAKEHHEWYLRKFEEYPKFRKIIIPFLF

[5] = target: T3, Steryl-sulfatase (Homo sapiens, UniProt P08842)
T3 sequence (P08842 whole entry): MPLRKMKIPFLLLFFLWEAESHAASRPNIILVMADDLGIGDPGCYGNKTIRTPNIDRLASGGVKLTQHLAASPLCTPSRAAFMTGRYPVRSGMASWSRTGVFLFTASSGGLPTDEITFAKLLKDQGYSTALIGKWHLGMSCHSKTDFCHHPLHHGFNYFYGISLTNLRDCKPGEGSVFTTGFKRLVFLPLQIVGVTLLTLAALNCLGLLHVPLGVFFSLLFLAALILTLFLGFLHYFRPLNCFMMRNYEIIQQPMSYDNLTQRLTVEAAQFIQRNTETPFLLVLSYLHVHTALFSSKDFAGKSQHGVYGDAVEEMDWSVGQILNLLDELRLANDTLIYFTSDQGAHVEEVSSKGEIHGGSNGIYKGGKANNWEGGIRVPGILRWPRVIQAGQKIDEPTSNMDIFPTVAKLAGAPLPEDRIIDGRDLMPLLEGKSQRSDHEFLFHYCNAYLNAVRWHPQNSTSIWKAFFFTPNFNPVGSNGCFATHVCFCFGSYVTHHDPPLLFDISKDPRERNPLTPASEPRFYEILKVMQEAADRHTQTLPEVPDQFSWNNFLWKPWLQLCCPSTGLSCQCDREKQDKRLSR

[6] = target: T3, Steryl-sulfatase; remark: listed apart in the source
[7] = target: T2, 3-oxo-5-alpha-steroid 4-dehydrogenase 1
[8] = target: T2, 3-oxo-5-alpha-steroid 4-dehydrogenase 1; remark: listed apart in the source
[9] = target: T4, 3-oxo-5-alpha-steroid 4-dehydrogenase 1 (Rattus norvegicus, UniProt P24008)
T4 sequence (P24008 whole entry): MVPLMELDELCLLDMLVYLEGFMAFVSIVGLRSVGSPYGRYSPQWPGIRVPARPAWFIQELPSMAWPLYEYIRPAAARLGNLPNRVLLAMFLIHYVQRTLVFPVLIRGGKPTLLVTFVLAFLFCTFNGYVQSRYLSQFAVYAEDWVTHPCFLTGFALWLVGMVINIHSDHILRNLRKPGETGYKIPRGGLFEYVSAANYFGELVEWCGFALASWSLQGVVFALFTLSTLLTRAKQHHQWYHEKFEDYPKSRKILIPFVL

[10] = target: T5, 3-oxo-5-alpha-steroid 4-dehydrogenase 2 (Rattus norvegicus, UniProt P31214)
T5 sequence (P31214 whole entry): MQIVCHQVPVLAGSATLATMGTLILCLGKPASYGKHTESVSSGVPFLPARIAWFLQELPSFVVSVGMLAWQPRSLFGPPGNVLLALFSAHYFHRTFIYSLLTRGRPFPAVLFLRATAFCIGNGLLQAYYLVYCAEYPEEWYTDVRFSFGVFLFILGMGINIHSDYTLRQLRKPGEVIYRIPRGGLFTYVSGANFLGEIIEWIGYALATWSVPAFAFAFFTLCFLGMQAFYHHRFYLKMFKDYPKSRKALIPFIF

[11] = target: T1, 3-oxo-5-alpha-steroid 4-dehydrogenase 2
[12] = target: T1, 3-oxo-5-alpha-steroid 4-dehydrogenase 2; remark: listed apart in the source
[13] = target: Peptidyl-prolyl cis-trans isomerase FKBP1A (Homo sapiens, UniProt P62942); assay: biochemical; type: cell-based
Chain of Peptidyl-prolyl cis-trans isomerase FKBP1A (P62942 whole entry): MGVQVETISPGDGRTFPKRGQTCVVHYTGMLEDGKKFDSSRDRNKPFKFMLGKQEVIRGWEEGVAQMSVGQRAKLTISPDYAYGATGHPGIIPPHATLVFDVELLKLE

[14] = target: Tyrosine-protein phosphatase non-receptor type 1 (Homo sapiens, UniProt P18031); type: cell-based, Sf9
Chain of Tyrosine-protein phosphatase non-receptor type 1 (P18031 whole entry): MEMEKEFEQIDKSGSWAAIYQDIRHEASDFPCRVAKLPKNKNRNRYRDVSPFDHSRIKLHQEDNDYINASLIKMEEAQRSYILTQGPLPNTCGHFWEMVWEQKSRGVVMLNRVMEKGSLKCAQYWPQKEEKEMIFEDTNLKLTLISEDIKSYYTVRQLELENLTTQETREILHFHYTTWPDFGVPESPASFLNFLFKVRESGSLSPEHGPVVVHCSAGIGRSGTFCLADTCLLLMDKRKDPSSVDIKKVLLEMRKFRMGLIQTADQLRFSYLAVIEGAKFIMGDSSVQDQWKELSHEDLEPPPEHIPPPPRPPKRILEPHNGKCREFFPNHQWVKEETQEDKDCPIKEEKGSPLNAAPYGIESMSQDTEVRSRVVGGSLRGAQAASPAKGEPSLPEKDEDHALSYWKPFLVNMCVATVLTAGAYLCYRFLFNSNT

Question: With `Cc1cn2c(C(=O)NCc3ccc(C(F)(F)F)cc3)c(C)nc2s1` as the compound, how does the fraction unbound [1] read?
Answer: 0.009

Question: With `O=C1Nc2ccc(S(F)(F)(F)(F)F)cc2/C1=C/c1ccc[nH]1` as the compound, how does the EC50 [2] read?
Answer: 490 nM

Question: For `CC(C)(C)NC(=O)[C@H]1CC[C@H]2[C@@H]3CC=C4C=C(F)CC[C@]4(C)[C@H]3CC[C@]12C`, which IC50 [3] is on record?
Answer: 480 nM

Question: And the IC50 [4]?
Answer: 1300 nM

Question: For `C[C@]12CC[C@@H]3c4ccc(C(F)(F)S(=O)(=O)O)cc4CC[C@H]3[C@@H]1CCC2=O`, which Ki [5] is on record?
Answer: 73000 nM

Question: And the Ki [6]?
Answer: 147000 nM

Question: Which results are given for `C[C@]12CC[C@@H]3c4ccc(C(F)(F)S(N)(=O)=O)cc4CC[C@H]3[C@@H]1CCC2=O`?
Answer: Ki [5]: 82000 nM; Ki [6]: 28000 nM

Question: With `CC(NC(=O)[C@H]1CC[C@H]2[C@@H]3CC[C@H]4NC(=O)C=C[C@]4(C)[C@H]3CC[C@]12C)(c1ccccc1)C(F)(F)F` (stereo partly drawn) as the compound, how does the IC50 [7] read?
Answer: 36 nM

Question: What about the IC50 [8] of the same compound?
Answer: 16 nM

Question: And the IC50 [9]?
Answer: 15 nM

Question: What about the IC50 [10] of the same compound?
Answer: 15 nM

Question: Which fraction unbound [1] does the source give for `Cc1cn2c(C(=O)NCc3ccc(S(F)(F)(F)(F)F)cc3)c(C)nc2s1` here?
Answer: 0.003

Question: What does the source list for `CC(C)(C)NC(=O)[C@H]1CC[C@H]2[C@@H]3CC[C@H]4NC(=O)C=C[C@]4(C)[C@H]3CC[C@]12C` [FINASTERIDE]?
Answer: IC50 [4]: 650 nM; IC50 [7]: 150 to 470 nM; IC50 [11]: 0.18 to 11.3 nM; IC50 [12]: 58 nM; IC50 [9]: 30 nM; IC50 [10]: 32 nM

Question: What does the source list for `C[C@]12C=CC(=O)N[C@@H]1CC[C@@H]1[C@@H]2CC[C@]2(C)[C@@H](C(=O)NC(c3ccccc3)(C(F)(F)F)C(F)(F)F)CC[C@@H]12`?
Answer: IC50 [7]: 3.9 nM; IC50 [8]: 20 nM; IC50 [9]: 34 nM; IC50 [10]: 34 nM

Question: For `C[C@]12C=CC(=O)N[C@@H]1CC[C@@H]1[C@@H]2CC[C@]2(C)[C@@H](C(=O)Nc3cc(C(F)(F)F)ccc3C(F)(F)F)CC[C@@H]12` [DUTASTERIDE], which IC50 [7] is on record?
Answer: 4 nM

Question: What about the IC50 [11] of the same compound?
Answer: < 0.1 nM

Question: For `O=C1Nc2cc(S(F)(F)(F)(F)F)ccc2/C1=C/c1ccc[nH]1`, which EC50 [2] is on record?
Answer: 350 nM

Question: Which Ki [13] does the source give for `COc1cc(C(=O)C(=O)N2CCC[C@H]2C(=O)OCCCc2cccnc2)cc(OC)c1OC` here?
Answer: 4000 nM

Question: Which EC50 [14] does the source give for `O=C(c1ccccc1)C(Cc1ccc(C(F)(F)P(=O)(O)O)c(Br)c1)c1ccccc1` (stereo not drawn) here?
Answer: 1200 nM
